In the NIST ThermoML archive (doi:10.1021/acs.jced.8b01146):
± gives the expanded uncertainty stated by the source.

Conditions: 100 kPa, Liquid, Vibrating tube method

Structure (SMILES) | mass density (288.15 K) | mass density (293.15 K) | mass density (298.15 K) | mass density (303.15 K) | mass density (308.15 K) | mass density (313.15 K) | mass density (318.15 K) | mass density (323.15 K)
CCC1CCC(=O)O1 (stereo not given) [2(3H)-furanone, 5-ethyldihydro-] | 1029.16 ± 0.54 kg/m3 | 1024.74 ± 0.54 kg/m3 | 1020.33 ± 0.53 kg/m3 | 1015.91 ± 0.53 kg/m3 | 1011.49 ± 0.53 kg/m3 | 1007.07 ± 0.53 kg/m3 | 1002.65 ± 0.53 kg/m3 | 998.229 ± 0.53 kg/m3
CC1CCCC(=O)O1 (stereo not given) [2H-pyran-2-one, tetrahydro-6-methyl-] | 1053.81 ± 0.51 kg/m3 | 1049.47 ± 0.51 kg/m3 | 1045.14 ± 0.51 kg/m3 | 1040.81 ± 0.51 kg/m3 | 1036.48 ± 0.51 kg/m3 | 1032.15 ± 0.51 kg/m3 | 1027.82 ± 0.51 kg/m3 | 1023.51 ± 0.51 kg/m3
CC1=CCC(=O)O1 [5-methylfuran-2(3H)-one] | 1099.32 ± 0.7 kg/m3 | 1093.94 ± 0.7 kg/m3 | 1088.55 ± 0.69 kg/m3 | 1083.16 ± 0.69 kg/m3 | 1077.77 ± 0.69 kg/m3 | 1072.38 ± 0.68 kg/m3 | 1066.98 ± 0.68 kg/m3 | 1061.58 ± 0.67 kg/m3
O=C1CCCO1 [γ-butyrolactone] | 1134.26 ± 0.51 kg/m3 | 1129.35 ± 0.51 kg/m3 | 1124.44 ± 0.51 kg/m3 | 1119.53 ± 0.51 kg/m3 | 1114.61 ± 0.51 kg/m3 | 1109.69 ± 0.51 kg/m3 | 1104.77 ± 0.51 kg/m3 | 1099.86 ± 0.51 kg/m3
CC1CCC(=O)O1 (stereo not given) [γ-valerolactone] | 1058.51 ± 0.51 kg/m3 | 1053.81 ± 0.51 kg/m3 | 1049.1 ± 0.51 kg/m3 | 1044.4 ± 0.51 kg/m3 | 1039.69 ± 0.51 kg/m3 | 1034.98 ± 0.51 kg/m3 | 1030.27 ± 0.51 kg/m3 | 1025.56 ± 0.51 kg/m3
